Values joined by “and” are separate entries in the source; they are usually repeats but may differ in a detail not shown here. Equal entries are not always repeated. “Also recorded” adds a separate entry of the source.
Columns and labels:
[1] = test system: chronic electrode-implanted rats; details: cited from earlier work; for EEG and behavior after intraventricular injection: relatively high dose
[2] = test system: SOD1 G93R mutant zebrafish larvae; assay: Behavioral analysis (DanioVision): locomotor activity, distance moved; type: in vivo, zebrafish (Danio rerio); details: for distance moved, elevation compared to non-treated SOD1 mutant, whole period of measurement: 6 dpf larvae; for distance moved compared to non-treated SOD1 mutant, whole experiment: 10 μM in swimming water; for effect on locomotor activity during all three experimental phases: spontaneous swimming, light/dark challenge, recovery from challenge
From the text: (§1) Treatment protocol SOD1 G93R mutant or WT fish were collected and raised according to accepted and approved protocols, see Westerfield M. The Zebrafish Book: a Guide for the Laboratory Use of Zebrafish (Danio rerio) 2000, incorporated herein as reference. Larvae's morphology was observed (heart rate, overall morphology and behavior) at each day.
Two-hundred and forty (240) larvae were selected from the same laying batch to be introduced to three distinct treatments and a control (n=60 per each treatment). First and second treatments were conducted at 3 and 5 days post fertilization (dpf), respectively, when the blood brain barrier (BBB) is fully closed, and the motor neurons (MNs) and neuromuscular junctions (NMJs) are fully developed. The materials were administrated in the swimming water (DB). At day 6, larvae were taken to behavioral analysis using the automated DanioVision™ system. Following analysis, larvae were fixed and whole-mount immunohistochemistry procedure was conducted to be used for high resolution morphological analysis. Treatment protocol is detailed in FIG. 1.
Behavioral analysis DanioVision™, an automated high-throughput tracking system of zebrafish larvae from Noldus Information Technology (Wageningen, the Netherlands), including control of light and dark conditions was used for the measurements and analysis of the results. Each single larvae was put in a single well, with the same volume of swimming water to ensure uniform background. Each animal was tested for its x,y position using dynamic subtraction 30 times per second. The distance each larvae moved in mm was calculated from the x,y position and averaged per time bin of 1 minute (average of 1800 measurements per each 1 minute). The behavioral profile was measured in 3 phases according to changes in environment that we applied, to introduce additional muscle and neurological stress. Spontaneous swimming, light/dark challenge (opto-kinetic response) and recovery from challenge behaviors were recorded and analyzed. All animals from the same treatment: wild type (WT), SOD1 mutant non-treated or treated were averaged per time bin of 1 minute to examine their reaction to additional stress, and then calculated for the whole period of time to get a relative number compared to the non-treated SOD1 mutant swimming behavior. Statistical analysis used was paired Student's t-tests (two-tailed) with two-sample assuming unequal variances. All P-values reported are two-tailed and the significance level was set at 0.05 (*), 0.01 to 0.001 (**) and below 0.001 (***).

[3] = test system: SOD1 G93R mutant zebrafish larvae; assay: Toxicity analysis of larvae (morphology, cardiovascular system, behavior, mortality); type: in vivo, zebrafish (Danio rerio)
Procedure: as §1
Toxicity analysis Fish were observed during the day of administration and the following days to observe toxicity. Acute toxicity was evaluated for apoptosis/necrosis and cardiovascular system abnormalities (heart rate, morphology, hemorrhage and edema). Head, eyes and overall morphological and behavioral toxicity were recorded according to accepted procedures^28.

[4] = test system: cytochrome P450 (CYP450) 2C9 and 3A4; details: cited from earlier work
RNAi = details: cited from earlier work
Pseudomonas aeruginosa = details: cited from earlier work
ALS mouse models = details: enhancement of DICER activity; cited from earlier work
[5] = test system: inhibitory interneurons of SOD1 mutants; details: 1 μM; cited from earlier work
ALS patients = details: clinical trial; cited from earlier work
[6] = 100 μM in swimming water, 0.1% DMSO
[7] = 100 μM, recovery from challenge phase
[8] = 100 μM, spontaneous swimming phase

CC(=O)Oc1ccccc1C(=O)O.NCCCCC(N)C(=O)O (racemic) [aspirin DL-lysine]
EEG and behavior after intraventricular injection [1]: spike and wave complex in EEG without showing remarkable behavioral changes

Cc1ccc(-c2cc(C(F)(F)F)nn2-c2ccc(S(N)(=O)=O)cc2)cc1 [Celecoxib]
distance moved, elevation compared to non-treated SOD1 mutant, whole period of measurement ([2]; 1 μM in swimming water): 6% | locomotor effect of Celecoxib at 5 μM ([2]; 5 μM, 0.1% DMSO background): subtle locomotor decline; also recorded: reduction in locomotor ability | locomotor effect of Celecoxib at 10 μM ([2]; 10 μM, 0.3% DMSO background): subtle locomotor decline; also recorded: Subtle locomotor reduction | toxicity at high concentration ([3]; 30 μM, 0.3% DMSO, SOD1 mutants and WT): cardiovascular toxicity and death | toxicity at lower concentrations ([3]; below 10 μM (0.3% DMSO) / 5 μM (0.1% DMSO)): no toxicity was evident | metabolism in vivo [4]: oxidized by cytochrome P450 (CYP450) 2C9 and 3A4 to the inactive metabolite hydroxycelecoxib

O=C(O)c1cn(C2CC2)c2cc(N3CCNCC3)c(F)cc2c1=O [Ciprofloxacin]
distance moved compared to non-treated SOD1 mutant, whole experiment ([2]; 0.1% DMSO): did not significantly affect locomotor activity; also recorded: not changed | effect on locomotor activity during all three experimental phases ([2]; 10 μM): nearly no effect | locomotor activity of Ciprofloxacin compared to Enoxacin treatment ([2]; 100 μM each, spontaneous swimming and recovery from challenge): elevated locomotor activity compared to Enoxacin treatment | distance moved, elevation compared to non-treated SOD1 mutant, whole period of measurement [2, 6]: 18% and 17.8% | locomotor activity, increase vs non-treated SOD1 mutant, recovery from challenge [2, 7]: 33.5% | locomotor activity, increase vs non-treated SOD1 mutant, spontaneous swimming [2, 8]: 26.2% | effect on locomotor activity under dark conditions ([2]; 1, 10, 50, 100, 200 and 500 μM): nearly no effect | locomotor activity in the phase of recovery from stress, dose response ([2]; 50, 100, 200 and 500 μM, second phase of light): dose dependent curve that eventually ended in a plateau | effect on spontaneous swimming at high concentrations ([2]; 200 and 500 μM, spontaneous swimming phase): did not cause elevation in spontaneous swimming | most potent concentration in affecting locomotor activity ([2]; tested 1-500 μM): 100 µM | RNAi-enhancing activity (RNAi): substantial RNAi-enhancing activity | potency against Pseudomonas aeruginosa among quinolones (Pseudomonas aeruginosa): most potent quinolone

CCn1cc(C(=O)O)c(=O)c2cc(F)c(N3CCNCC3)nc21 [Enoxacin]
distance moved compared to non-treated SOD1 mutant, whole experiment ([2]; 0.1% DMSO): not changed | effect on locomotor activity during all three experimental phases ([2]; 10 μM): nearly no effect | distance moved, elevation compared to non-treated SOD1 mutant, whole period of measurement [2, 6]: 20% | distance moved, elevation compared to non-treated SOD1 mutant, whole period of measurement ([2]; 100 μM in swimming water, 0.1% DMSO, listed as enoxacin): 19.9% | locomotor activity, increase vs non-treated SOD1 mutant, light/dark challenge ([2]; 100 μM, light/dark challenge phase): 21% | locomotor activity, increase vs non-treated SOD1 mutant, recovery from challenge [2, 7]: 17.6% | locomotor activity, increase vs non-treated SOD1 mutant, spontaneous swimming [2, 8]: 20.1% | drug induced effects in morphology or mortality ([3]; Enoxacin 10 μM and 100 μM, 0.1% DMSO): no drug induced effects in morphology or mortality were observed | effect in two independent ALS mouse models (ALS mouse models): beneficial in vivo | epileptogenic activity, EEG ([1]; intraventricular, 50 and 100 micrograms): potent epileptogenic activity

CCOC(=O)Cc1ccc(-c2ccccc2)cc1 [Ferubinac ethyl]
EEG and behavior after intraventricular injection [1]: spike and wave complex in EEG without showing remarkable behavioral changes

Nc1nc2ccc(OC(F)(F)F)cc2s1 [Riluzole]
distance moved, elevation compared to non-treated SOD1 mutant, whole period of measurement ([2]; 1 μM in swimming water): 36% and 36.8% | locomotor activity, increase vs non-treated SOD1 mutant, light/dark challenge ([2]; 1 μM, light/dark challenge phase (10-20 min)): 32% | locomotor activity, increase vs non-treated SOD1 mutant, recovery from challenge ([2]; 1 μM, recovery from challenge phase (last 10 minutes)): 39.7% | locomotor activity, increase vs non-treated SOD1 mutant, spontaneous swimming ([2]; 1 μM, spontaneous swimming phase (0-10 min)): 38% | neuronal stress in inhibitory interneurons [5]: reduced | effect on ALS disease progression (ALS patients): modestly slowed ALS progression

Source: patent publication US12527768B2, “Compositions comprising an anti-inflammatory drug and a dicer activator for use in the treatment of neuronal diseases” (NeuroSense Therapeutics Ltd., priority 2017, dated 2026)
